Source: the supplement of paper PMC11962398

Assays:
[1] = compound: T1, C[C@H]1CNCCN1c1nccc(-c2noc3c2CCC[C@@]32CCCc3sc(N)c(C#N)c32)n1 [BI-2493]; details: 5 days
Experimental: (§1)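 PRISM pooled barcoded cancer cell line viability screen (Broad Institute) with BI-2493 at 8 doses in threefold dilutions from 0.00457 to 10 µmol/L, 5-day treatment; curves fitted per cell line. IC50 is undefined (placeholder) for resistant lines. AUC is capped at 1, and sensitivity is reported as 1 − AUC.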

[2] = compound: T1, BI-2493; test: 1 - AUC of viability dose-response curve (sensitivity) (fraction); higher = more sensitive; details: 5 days
Experimental: as §1

C33A_CERVIX
IC50 of cell viability [1]: 3.53 µM | 1 - AUC of viability dose-response curve [2]: 0.131

C75_LARGE_INTESTINE
IC50 of cell viability [1]: 9.28 µM | 1 - AUC of viability dose-response curve [2]: 0.22

C80_LARGE_INTESTINE
IC50 of cell viability [1]: 0.477 µM | 1 - AUC of viability dose-response curve [2]: 0.3

C8166_HAEMATOPOIETIC_AND_LYMPHOID_TISSUE
IC50 of cell viability [1]: 9.65 µM | 1 - AUC of viability dose-response curve [2]: 0.00732

CADOES1_BONE
IC50 of cell viability [1]: 9.64 µM | 1 - AUC of viability dose-response curve [2]: 0.00999

CAKI1_KIDNEY
IC50 of cell viability [1]: 9.29 µM | 1 - AUC of viability dose-response curve [2]: 0.0185

CAL12T_LUNG
IC50 of cell viability [1]: 4.93 µM | 1 - AUC of viability dose-response curve [2]: 0.201

CAL27_UPPER_AERODIGESTIVE_TRACT
IC50 of cell viability [1]: 3.79 µM | 1 - AUC of viability dose-response curve [2]: 0.241

CAL29_URINARY_TRACT
IC50 of cell viability [1]: 2.5 µM | 1 - AUC of viability dose-response curve [2]: 0.264

CAL33_UPPER_AERODIGESTIVE_TRACT
IC50 of cell viability [1]: 6.54 µM | 1 - AUC of viability dose-response curve [2]: 0.142

CAL51_BREAST
IC50 of cell viability [1]: 9.13 µM | 1 - AUC of viability dose-response curve [2]: 0.0624

CAL54_KIDNEY
IC50 of cell viability [1]: > 10 µM | 1 - AUC of viability dose-response curve [2]: 0.00233

CAL62_THYROID
IC50 of cell viability [1]: > 10 µM | 1 - AUC of viability dose-response curve [2]: 0.0045

CAL72_BONE
IC50 of cell viability [1]: > 10 µM | 1 - AUC of viability dose-response curve [2]: 0.176

CAL78_BONE
IC50 of cell viability [1]: 7.37 µM | 1 - AUC of viability dose-response curve [2]: 0.0497

CAL120_BREAST
IC50 of cell viability [1]: > 10 µM | 1 - AUC of viability dose-response curve [2]: 0.0763

CAL148_BREAST
IC50 of cell viability [1]: > 10 µM | 1 - AUC of viability dose-response curve [2]: < 0

CALU1_LUNG
IC50 of cell viability [1]: 5.25 µM | 1 - AUC of viability dose-response curve [2]: 0.0917

CALU6_LUNG
IC50 of cell viability [1]: 9.77 µM | 1 - AUC of viability dose-response curve [2]: 0.00583

CAMA1_BREAST
IC50 of cell viability [1]: > 10 µM | 1 - AUC of viability dose-response curve [2]: 0.00667

CAOV3_OVARY
IC50 of cell viability [1]: > 10 µM | 1 - AUC of viability dose-response curve [2]: 0.0615

CAPAN2_PANCREAS
IC50 of cell viability [1]: 1.2 µM | 1 - AUC of viability dose-response curve [2]: 0.303

CAS1_CENTRAL_NERVOUS_SYSTEM
IC50 of cell viability [1]: 9.1 µM | 1 - AUC of viability dose-response curve [2]: 0.0158

CASKI_CERVIX
IC50 of cell viability [1]: 8.68 µM | 1 - AUC of viability dose-response curve [2]: 0.0572

CCFSTTG1_CENTRAL_NERVOUS_SYSTEM
IC50 of cell viability [1]: > 10 µM | 1 - AUC of viability dose-response curve [2]: 0.00118

CCK81_LARGE_INTESTINE
IC50 of cell viability [1]: 6.18 µM | 1 - AUC of viability dose-response curve [2]: 0.0958

CCLP1_BILIARY_TRACT
IC50 of cell viability [1]: 7.32 µM | 1 - AUC of viability dose-response curve [2]: 0.0617

CCSW1_BILIARY_TRACT
IC50 of cell viability [1]: 5.45 µM | 1 - AUC of viability dose-response curve [2]: 0.14

CFPAC1_PANCREAS
IC50 of cell viability [1]: 4.12 µM | 1 - AUC of viability dose-response curve [2]: 0.15

CH157MN_CENTRAL_NERVOUS_SYSTEM
IC50 of cell viability [1]: 8.61 µM | 1 - AUC of viability dose-response curve [2]: 0.0235

CHAGOK1_LUNG
IC50 of cell viability [1]: 4.47 µM | 1 - AUC of viability dose-response curve [2]: 0.173

CHL1_SKIN
IC50 of cell viability [1]: 4.96 µM | 1 - AUC of viability dose-response curve [2]: 0.14

CHLA06ATRT_SOFT_TISSUE
IC50 of cell viability [1]: 7.12 µM | 1 - AUC of viability dose-response curve [2]: 0.141

CHLA15_AUTONOMIC_GANGLIA
IC50 of cell viability [1]: 5.41 µM | 1 - AUC of viability dose-response curve [2]: 0.187

CHLA57_BONE
IC50 of cell viability [1]: 3.06 µM | 1 - AUC of viability dose-response curve [2]: 0.211

CHLA200_CENTRAL_NERVOUS_SYSTEM
IC50 of cell viability [1]: 9.58 µM | 1 - AUC of viability dose-response curve [2]: 0.0104

CHP212_AUTONOMIC_GANGLIA
IC50 of cell viability [1]: 9.9 µM | 1 - AUC of viability dose-response curve [2]: 0.00818

CJM_SKIN
IC50 of cell viability [1]: 5.39 µM | 1 - AUC of viability dose-response curve [2]: 0.11

CL11_LARGE_INTESTINE
IC50 of cell viability [1]: 5.92 µM | 1 - AUC of viability dose-response curve [2]: 0.117

CL34_LARGE_INTESTINE
IC50 of cell viability [1]: > 10 µM | 1 - AUC of viability dose-response curve [2]: 0.00172

CMLT1_HAEMATOPOIETIC_AND_LYMPHOID_TISSUE
IC50 of cell viability [1]: 4.55 µM | 1 - AUC of viability dose-response curve [2]: 0.129

COGN278_AUTONOMIC_GANGLIA
IC50 of cell viability [1]: 7.86 µM | 1 - AUC of viability dose-response curve [2]: 0.0701

COLO320_LARGE_INTESTINE
IC50 of cell viability [1]: 7.35 µM | 1 - AUC of viability dose-response curve [2]: 0.057

COLO668_LUNG
IC50 of cell viability [1]: 5.95 µM | 1 - AUC of viability dose-response curve [2]: 0.103

COLO679_SKIN
IC50 of cell viability [1]: 4.47 µM | 1 - AUC of viability dose-response curve [2]: 0.146

COLO680N_OESOPHAGUS
IC50 of cell viability [1]: 8.49 µM | 1 - AUC of viability dose-response curve [2]: 0.0719

COLO741_SKIN
IC50 of cell viability [1]: 9.66 µM | 1 - AUC of viability dose-response curve [2]: 0.00696

COLO783_SKIN
IC50 of cell viability [1]: 5.22 µM | 1 - AUC of viability dose-response curve [2]: 0.176

COLO792_SKIN
IC50 of cell viability [1]: 7.62 µM | 1 - AUC of viability dose-response curve [2]: 0.221

COLO800_SKIN
IC50 of cell viability [1]: 7.65 µM | 1 - AUC of viability dose-response curve [2]: 0.0454

CORL23_LUNG
IC50 of cell viability [1]: 5.82 µM | 1 - AUC of viability dose-response curve [2]: 0.0991

CORL88_LUNG
IC50 of cell viability [1]: 4.54 µM | 1 - AUC of viability dose-response curve [2]: 0.143

CORL105_LUNG
IC50 of cell viability [1]: > 10 µM | 1 - AUC of viability dose-response curve [2]: 0.157

CORL279_LUNG
IC50 of cell viability [1]: 7.86 µM | 1 - AUC of viability dose-response curve [2]: 0.134

COV318_OVARY
IC50 of cell viability [1]: > 10 µM | 1 - AUC of viability dose-response curve [2]: 0.0643

COV362_OVARY
IC50 of cell viability [1]: > 10 µM | 1 - AUC of viability dose-response curve [2]: 0.00606

COV434_OVARY
IC50 of cell viability [1]: 3.6 µM | 1 - AUC of viability dose-response curve [2]: 0.191

COV644_OVARY
IC50 of cell viability [1]: 7.18 µM | 1 - AUC of viability dose-response curve [2]: 0.157

CW2_LARGE_INTESTINE
IC50 of cell viability [1]: 8.55 µM | 1 - AUC of viability dose-response curve [2]: 0.071

CW9019_SOFT_TISSUE
IC50 of cell viability [1]: 3.99 µM | 1 - AUC of viability dose-response curve [2]: 0.111

DAOY_CENTRAL_NERVOUS_SYSTEM
IC50 of cell viability [1]: 9.62 µM | 1 - AUC of viability dose-response curve [2]: 0.0237

DBTRG05MG_CENTRAL_NERVOUS_SYSTEM
IC50 of cell viability [1]: 7.98 µM | 1 - AUC of viability dose-response curve [2]: 0.0396

DETROIT562_UPPER_AERODIGESTIVE_TRACT
IC50 of cell viability [1]: 2.81 µM | 1 - AUC of viability dose-response curve [2]: 0.18

DKMG_CENTRAL_NERVOUS_SYSTEM
IC50 of cell viability [1]: 4.05 µM | 1 - AUC of viability dose-response curve [2]: 0.112

DL_SOFT_TISSUE
IC50 of cell viability [1]: 4.57 µM | 1 - AUC of viability dose-response curve [2]: 0.192

DMS53_LUNG
IC50 of cell viability [1]: 6.38 µM | 1 - AUC of viability dose-response curve [2]: 0.114

DMS79_LUNG
IC50 of cell viability [1]: > 10 µM | 1 - AUC of viability dose-response curve [2]: 0.0188

DMS273_LUNG
IC50 of cell viability [1]: 2.81 µM | 1 - AUC of viability dose-response curve [2]: 0.265

DND41_HAEMATOPOIETIC_AND_LYMPHOID_TISSUE
IC50 of cell viability [1]: 4.59 µM | 1 - AUC of viability dose-response curve [2]: 0.156

DOTC24510_CERVIX
IC50 of cell viability [1]: 6.38 µM | 1 - AUC of viability dose-response curve [2]: 0.0765

DU145_PROSTATE
IC50 of cell viability [1]: > 10 µM | 1 - AUC of viability dose-response curve [2]: 0.172

DU4475_BREAST
IC50 of cell viability [1]: 2.96 µM | 1 - AUC of viability dose-response curve [2]: 0.151

DV90_LUNG
IC50 of cell viability [1]: 0.856 µM | 1 - AUC of viability dose-response curve [2]: 0.308

EB1_HAEMATOPOIETIC_AND_LYMPHOID_TISSUE
IC50 of cell viability [1]: 9.47 µM | 1 - AUC of viability dose-response curve [2]: 0.0219

EBC1_LUNG
IC50 of cell viability [1]: 6.97 µM | 1 - AUC of viability dose-response curve [2]: 0.0696

ECC2_BILIARY_TRACT
IC50 of cell viability [1]: > 10 µM | 1 - AUC of viability dose-response curve [2]: < 0

ECC10_STOMACH
IC50 of cell viability [1]: 4.51 µM | 1 - AUC of viability dose-response curve [2]: 0.0829
